We go through three compounds from article PMC10654576, “Isothermal chemical denaturation assay for monitoring protein stability and inhibitor interactions” (Scientific Reports, 2023).

As usually defined, the EC50 is the concentration at which the effect is half-maximal. A word on the Kd: it is the constant that tells how readily two partners part at equilibrium.

“Also recorded” adds a separate entry of the source.

Assay [1] concerns the target T1, KRAS^G12V (Homo sapiens, UniProt P01116, G12V).
T1 construct: Monomer (2-188); host or cells: E. coli
Briefly: FRET-Probe isothermal chemical denaturation (ICD) assay, KRAS^G12V. It counts as binding. The note with it: for S/B ratio, denaturation with and without GTP: 1 µM GTP. On the procedure: (§1) All isothermal chemical denaturation (ICD) assays were conducted in triplicates at RT using a single-step protocol with 25 µL final volume. Sample protein and ligand were added in 5 µL in a buffer (10 mM HEPES (pH 7.5), 10 mM NaCl, (v/v) 0.01% Brij 30) without denaturant. FRET-Probe (0.5 nM) was added to the assay buffer supplemented with chemical denaturant, urea (0–5 M), ethanol (0–30%) or 1-propanol (0–50%). Additionally, 0.2 mM EDTA was used in combination with alcohols.
(§2) In all ICD protein assays, time-resolved Förster resonance energy transfer (TR-FRET) signal was monitored kinetically at multiple time points during 150 min incubation. In all assays with protein binding ligands, 30 min preincubation prior denaturant addition was performed. In acid induced denaturation assay, GTP (0–2 µM) and NADH (0–50 µM) were titrated with KRAS^G12V and MDH, respectively. 1-propanol (30–50%) ICD assays were also performed for MDH in the presence of NADH (0–50 µM) and (20%) for KRAS^G12V using GTP (0–10 µM). […] Additionally, urea was tested with 1 µM GTP with KRAS^G12V.

The target of assay [2] is T2, malate dehydrogenase (MDH) (Sus scrofa, UniProt P00346).
T2 construct: purchased Sigma-Aldrich (St. Louis, MO, USA)
T2 sequence (P00346 25-338): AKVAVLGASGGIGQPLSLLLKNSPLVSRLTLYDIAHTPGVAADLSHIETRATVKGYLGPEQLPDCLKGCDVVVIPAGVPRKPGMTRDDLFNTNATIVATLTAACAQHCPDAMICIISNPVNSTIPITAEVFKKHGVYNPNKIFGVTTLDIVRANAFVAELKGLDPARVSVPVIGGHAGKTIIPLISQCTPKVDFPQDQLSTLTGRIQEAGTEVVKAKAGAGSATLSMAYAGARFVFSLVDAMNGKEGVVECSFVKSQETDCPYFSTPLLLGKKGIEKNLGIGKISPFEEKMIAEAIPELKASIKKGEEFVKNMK
Briefly: FRET-Probe thermal shift assay (TSA), MDH with NADH. It counts as binding. The note with it: for Tm of MDH with NADH: 25 nM MDH. On the procedure: All FRET-Probe TSA were conducted in triplicates using a single-step protocol, by adding the sample protein in 5 µL and FRET-Probe (0.5 nM) in 20 µL volumes. All concentrations are reported in a 25 µL final volume. Assays were performed in an assay buffer containing 10 mM HEPES (pH 7.5) supplemented with 0.001% (v/v) Triton X-100.

The target of assay [3] is T3, MDH (Sus scrofa, UniProt P00346).
T3 construct: purchased Sigma-Aldrich (St. Louis, MO, USA)
T3 sequence (P00346 25-338): T2 sequence (P00346 25-338)
Briefly: FRET-Probe isothermal chemical denaturation (ICD) assay, MDH. It counts as binding. The note with it: 25 nM MDH. On the procedure: as §1, §2

The target of assay [4] is MDH. The arrangement: method as in PMID 225321. The note with it: MDH/NADH interaction; cited from earlier work.

For the compound `Nc1ncnc2c1ncn2[C@@H]1O[C@H](COP(=O)(O)OP(=O)(O)OP(=O)(O)O)[C@@H](O)[C@H]1O` [ATP], the “TR-FRET signal level compared with protein alone” value in assay [1] (50 nM KRAS^G12V, pH 5, 2 and 10 µM ATP) is “no change of signal level; also recorded: in the same range”.
`Nc1nc2c(ncn2[C@@H]2O[C@H](COP(=O)(O)OP(=O)(O)OP(=O)(O)O)[C@@H](O)[C@H]2O)c(=O)[nH]1` [GTP, guanosine-5'-triphosphate]: the “S/B ratio, denaturation with and without GTP” value was 15.1 in assay [1] (50 nM KRAS^G12V, 1 M urea, 60 min) and 20.3 in assay [1] (50 nM KRAS^G12V, 2 M urea, 60 min). The half-maximal effective concentration (EC50) in assay [1] (50 nM KRAS^G12V, pH 5 denaturation buffer, 30 min) stood at 4.5 ± 1.9 nM; in assay [1] (50 nM KRAS^G12V, pH 5 denaturation buffer, 60 min), 2.6 ± 0.7 nM; in assay [1] (50 nM KRAS^G12V, pH 5 denaturation buffer, 90 min), 3.5 ± 0.1 nM; in assay [1] (50 nM KRAS^G12V, pH 5 denaturation buffer, 120 min), 4.6 ± 0.3 nM; in assay [1] (KRAS^G12V, 20% 1-propanol, 30 min), 3.6 ± 0.5 nM; in assay [1] (KRAS^G12V, 20% 1-propanol, 60 min) it was 3.8 ± 0.4 nM. Moreover, the EC50 turned out to be 5.2 ± 1.2 nM in assay [1] (KRAS^G12V, 20% 1-propanol, 90 min) and 5.2 ± 0.7 nM in assay [1] (KRAS^G12V, 20% 1-propanol, 120 min).
Regarding `NC(=O)C1=CN([C@@H]2O[C@H](COP(=O)(O)OP(=O)(O)OC[C@H]3O[C@@H](n4cnc5c(N)ncnc54)[C@H](O)[C@@H]3O)[C@@H](O)[C@H]2O)C=CC1` [NADH, reduced nicotinamide adenine dinucleotide], the “Tm of MDH with NADH” value is 47.9 ± 0.6 °C in assay [2] (5 µM NADH) and 51.7 ± 0.2 °C in assay [2] (50 µM NADH). In addition, the “Δ Tm of MDH” value in assay [2] (5 µM NADH) came to 1.2 °C; in assay [2] (50 µM NADH) it was 5.0 °C. The EC50 in assay [3] (30–50% 1-propanol, 60 min incubation) is 29000 to 38000 nM; in assay [3] (pH 5 denaturation buffer, RT, 90 min incubation), 4700 ± 800 nM. In addition, the “ligand-induced stabilization of MDH” value in assay [3] (pH 5, 5 and 50 µM NADH, RT) is “clear ligand-induced stabilization”. For the same compound, in assay [4], the Kd is 3800 nM.
